Laboratory results: the NIST ThermoML archive (doi:10.1021/je2013704)
± gives the expanded uncertainty stated by the source.

Experiment: mn = molality of the nth substance listed, in mol/kg
Conditions: Liquid, Vibrating tube method

[Cl-].[K+] [potassium chloride] + O
mass density [kg/m3]
Conditions | 298.12 K | 323.07 K | 348.04 K | 372.99 K | 397.97 K | 422.94 K | 447.94 K | 472.96 K
900 kPa, m1 = 1.06 | 1044.2 ± 0.09 | 1034.14 ± 0.08 | 1020.74 ± 0.08 | 1004.76 ± 0.07 | 986.31 ± 0.08 | 965.57 ± 0.09 | 942.89 ± 0.11 | –
900 kPa, m1 = 3.15 | 1124.07 ± 0.14 | 1112.58 ± 0.13 | 1098.82 ± 0.13 | 1083.32 ± 0.12 | 1065.9 ± 0.11 | 1046.73 ± 0.11 | 1025.62 ± 0.11 | –
900 kPa, m1 = 4.49 | 1168.21 ± 0.17 | 1156.09 ± 0.17 | 1142.21 ± 0.16 | 1126.88 ± 0.15 | 1109.9 ± 0.14 | 1091.46 ± 0.14 | 1071.39 ± 0.13 | –
9900 kPa, m1 = 1.06 | 1047.96 ± 0.11 | 1037.83 ± 0.1 | 1024.46 ± 0.09 | 1008.64 ± 0.08 | 990.53 ± 0.08 | 970.25 ± 0.1 | 948.08 ± 0.13 | 923.68 ± 0.16
9900 kPa, m1 = 3.15 | 1127.47 ± 0.2 | 1115.91 ± 0.18 | 1102.28 ± 0.17 | 1086.89 ± 0.16 | 1069.71 ± 0.14 | 1050.87 ± 0.13 | 1030.11 ± 0.12 | 1007.94 ± 0.11
9900 kPa, m1 = 4.49 | 1171.42 ± 0.25 | 1159.3 ± 0.24 | 1145.43 ± 0.22 | 1130.26 ± 0.21 | 1113.48 ± 0.19 | 1095.41 ± 0.18 | 1075.5 ± 0.17 | 1054.54 ± 0.16
19900 kPa, m1 = 1.06 | 1052.02 ± 0.13 | 1041.82 ± 0.12 | 1028.51 ± 0.1 | 1012.91 ± 0.09 | 995.11 ± 0.08 | 975.13 ± 0.11 | 953.62 ± 0.14 | 929.93 ± 0.19
19900 kPa, m1 = 3.15 | 1131.16 ± 0.26 | 1119.53 ± 0.25 | 1105.97 ± 0.23 | 1090.74 ± 0.2 | 1073.82 ± 0.18 | 1055.23 ± 0.16 | 1034.96 ± 0.14 | 1013.25 ± 0.12
19900 kPa, m1 = 4.49 | 1174.92 ± 0.34 | 1162.77 ± 0.32 | 1148.98 ± 0.3 | 1133.92 ± 0.28 | 1117.4 ± 0.26 | 1099.54 ± 0.23 | 1080.06 ± 0.21 | 1059.47 ± 0.19
29900 kPa, m1 = 1.06 | 1056.08 ± 0.17 | 1045.67 ± 0.15 | 1032.5 ± 0.12 | 1017.11 ± 0.1 | 999.53 ± 0.07 | 979.97 ± 0.11 | 958.88 ± 0.15 | 935.86 ± 0.21
29900 kPa, m1 = 3.15 | 1134.81 ± 0.34 | 1123.11 ± 0.31 | 1109.59 ± 0.29 | 1094.53 ± 0.26 | 1077.73 ± 0.23 | 1059.51 ± 0.19 | 1039.57 ± 0.16 | 1018.38 ± 0.13
29900 kPa, m1 = 4.49 | 1178.38 ± 0.44 | 1166.16 ± 0.41 | 1152.52 ± 0.38 | 1137.58 ± 0.35 | 1121.12 ± 0.32 | 1103.53 ± 0.29 | 1084.38 ± 0.26 | 1064.17 ± 0.23
39900 kPa, m1 = 1.06 | 1060 ± 0.2 | 1049.58 ± 0.18 | 1036.42 ± 0.15 | 1021.1 ± 0.11 | 1003.82 ± 0.08 | 984.63 ± 0.11 | 963.97 ± 0.16 | 941.62 ± 0.22
39900 kPa, m1 = 3.15 | 1138.35 ± 0.41 | 1126.71 ± 0.38 | 1113.24 ± 0.35 | 1098.25 ± 0.31 | 1081.65 ± 0.27 | 1063.66 ± 0.23 | 1044.09 ± 0.19 | 1023.39 ± 0.15
39900 kPa, m1 = 4.49 | 1181.79 ± 0.53 | 1169.63 ± 0.5 | 1155.93 ± 0.47 | 1141.11 ± 0.43 | 1124.86 ± 0.39 | 1107.49 ± 0.35 | 1088.62 ± 0.31 | 1068.85 ± 0.27
49900 kPa, m1 = 1.06 | 1063.86 ± 0.24 | 1053.35 ± 0.21 | 1040.18 ± 0.17 | 1025.08 ± 0.13 | 1008.02 ± 0.09 | 989.18 ± 0.1 | 968.88 ± 0.16 | 947.07 ± 0.24
49900 kPa, m1 = 3.15 | 1141.9 ± 0.49 | 1130.16 ± 0.46 | 1116.68 ± 0.42 | 1101.91 ± 0.37 | 1085.49 ± 0.32 | 1067.79 ± 0.28 | 1048.45 ± 0.23 | 1028.19 ± 0.18
49900 kPa, m1 = 4.49 | 1185.09 ± 0.63 | 1172.93 ± 0.6 | 1159.38 ± 0.56 | 1144.58 ± 0.51 | 1128.56 ± 0.46 | 1111.34 ± 0.42 | 1092.74 ± 0.37 | 1073.32 ± 0.32
59900 kPa, m1 = 1.06 | 1067.62 ± 0.29 | 1057.01 ± 0.25 | 1043.91 ± 0.21 | 1028.91 ± 0.16 | 1012.1 ± 0.11 | 993.52 ± 0.09 | 973.66 ± 0.16 | 952.36 ± 0.24
59900 kPa, m1 = 3.15 | 1145.28 ± 0.57 | 1133.6 ± 0.53 | 1120.15 ± 0.49 | 1105.38 ± 0.43 | 1089.26 ± 0.38 | 1071.77 ± 0.32 | 1052.77 ± 0.26 | 1032.84 ± 0.21
59900 kPa, m1 = 4.49 | 1188.28 ± 0.74 | 1176.14 ± 0.69 | 1162.56 ± 0.65 | 1147.95 ± 0.59 | 1132.08 ± 0.54 | 1115.08 ± 0.48 | 1096.73 ± 0.43 | 1077.68 ± 0.37
68400 kPa, m1 = 1.06 | 1070.84 ± 0.33 | 1060.07 ± 0.29 | 1047.14 ± 0.24 | 1032.17 ± 0.18 | 1015.46 ± 0.12 | 997.11 ± 0.08 | 977.57 ± 0.16 | 956.79 ± 0.25
68400 kPa, m1 = 3.15 | 1148.2 ± 0.65 | 1136.35 ± 0.6 | 1123.07 ± 0.55 | 1108.37 ± 0.49 | 1092.3 ± 0.43 | 1075 ± 0.36 | 1056.27 ± 0.3 | 1036.57 ± 0.23
68400 kPa, m1 = 4.49 | 1191.12 ± 0.83 | 1178.8 ± 0.78 | 1165.39 ± 0.73 | 1150.77 ± 0.67 | 1135 ± 0.61 | 1118.18 ± 0.54 | 1100.1 ± 0.48 | 1081.18 ± 0.42
